Measured values from patent US20050153943A1, “Methods of simultaneously treating mucositis and fungal infection” (priority 2002, published 2005).

Experiments:
Assay in all cases: Fungal growth on SABHI agar containing CMT (Example 38)
Format in all cases: cell-based
[1] = system: Aspergillus fumigatus ATCC 1022; conditions: for Anti-fungal activity (summary in words): 25 μg/ml agar, Example 38; for Growth at 25 μg/ml compared to control at 24 hrs incubation / Growth at 25 μg/ml compared to control at 48 hours: 30° C., growth grade
Method: (§1) The following fungi were inoculated onto potato dextrose agar (PDA) from stock cultures and incubated aerobically at 30° C.: Aspergillus [NT] 1022, Penicillium sp. (laboratory isolate), Candida albicans, ATCC 14053, and Rhizopus sp. […] The conidia were suspended in 0.9% saline and the turbidity was adjusted to match a 0.5 MacFarland standard (equivalent to approximately 1.5×10^8 cells). Candida albicans was suspended in saline and adjusted to 0.5 MacFarland in a similar manner. These suspensions were diluted 1:100 in sterile 0.9% saline. SABHI Agar (Difco) pH 7.0 was prepared in 100 ml amounts and sterilized at 121° C. for 15 min. […] SABHI Agar plates of each CMT and SAHBI agar without CMT using dimethylsulphoxide (DMSO) as a control were inoculated with 10 μl of conidia suspension of Aspergillus fumigatus, Penicillium sp. and Rhizopus sp. and 10 μl suspension of Candida albicans prepared as described above. The plates were then incubated aerobically for 24 hour and for 48 hours at 30° C. The results are set forth in Table 1 (24 hr. incubation) and Table 2 (48 hr. incubation). [table]

[2] = system: Candida albicans, ATCC 14053; conditions: for Anti-fungal activity (summary in words): 25 μg/ml agar, Example 38; for Growth at 25 μg/ml compared to control at 24 hrs incubation / Growth at 25 μg/ml compared to control at 48 hours: 30° C., growth grade
Method: as §1

[3] = system: Penicillium sp. (laboratory isolate); conditions: for Anti-fungal activity (summary in words): 25 μg/ml agar, Example 38; for Growth at 25 μg/ml compared to control at 24 hrs incubation / Growth at 25 μg/ml compared to control at 48 hours: 30° C., growth grade
Method: as §1

Rhizopus sp. = conditions: for Growth at 25 μg/ml compared to control at 24 hrs incubation / Growth at 25 μg/ml compared to control at 48 hours: 30° C., growth grade
Method: as §1

In the case of `O=C(NCN1CCNCC1)C1=C(O)CC2CC3Cc4cccc(O)c4C(=O)C3=C(O)C2(O)C1=O` (stereo not drawn) [COL 315, 2-CONHCH2-piperazin-1-yl-6-demethyl-6-deoxy-4-dedimethylaminotetracycline], the “Anti-fungal activity (summary in words)” value [1] is reported as “activity against all the fungi tested”, the “Growth at 25 μg/ml compared to control at 24 hrs incubation” value [1] is reported as 0 (complete inhibition of growth.) and the “Growth at 25 μg/ml compared to control at 48 hours” value [1] is reported as 0 (complete inhibition of growth.). For the same molecule, the “Anti-fungal activity (summary in words)” value [2] was “activity against all the fungi tested”, the “Growth at 25 μg/ml compared to control at 24 hrs incubation” value [2] was 0 (complete inhibition of growth.) and the “Growth at 25 μg/ml compared to control at 48 hours” value [2] was 0 (complete inhibition of growth.). For the same molecule, the “Anti-fungal activity (summary in words)” value [3] was “activity against all the fungi tested”, the “Growth at 25 μg/ml compared to control at 24 hrs incubation” value [3] was 0 (complete inhibition of growth.) and the “Growth at 25 μg/ml compared to control at 48 hours” value [3] was 0 (complete inhibition of growth.). The “Anti-fungal activity (summary in words)” value (Rhizopus sp.; 25 μg/ml agar, Example 38) was “activity against all the fungi tested”, the “Growth at 25 μg/ml compared to control at 24 hrs incubation” value (Rhizopus sp.) was 1 (75% reduction in growth in colonies compared to control.) and the “Growth at 25 μg/ml compared to control at 48 hours” value (Rhizopus sp.) was 1 (75% reduction in growth in colonies compared to control.).

For `CN(C)c1ccc2c(c1O)C(=O)C1=C(O)C3(O)C(=O)C(C(N)=O)=C(O)CC3CC1C2` (stereo not drawn) [COL 306, 9-dimethylamino-6-demethyl-6-deoxy-4-dedimethylaminotetracycline], the “Growth at 25 μg/ml compared to control at 24 hrs incubation” value [1] was 1 (75% reduction in growth in colonies compared to control.), the “Growth at 25 μg/ml compared to control at 48 hours” value [1] was 4 (Level of growth in the absence of anti-fungal agent (control).) and the “Growth at 25 μg/ml compared to control at 24 hrs incubation” value [2] was 3 (25% reduction in growth of colonies compared to control.). The “Growth at 25 μg/ml compared to control at 48 hours” value [2] was 4 (Level of growth in the absence of anti-fungal agent (control).), the “Growth at 25 μg/ml compared to control at 24 hrs incubation” value [3] was 3 (25% reduction in growth of colonies compared to control.) and the “Growth at 25 μg/ml compared to control at 48 hours” value [3] was 4 (Level of growth in the absence of anti-fungal agent (control).). The “Growth at 25 μg/ml compared to control at 24 hrs incubation” value (Rhizopus sp.) was 4 (Level of growth in the absence of anti-fungal agent (control).) and the “Growth at 25 μg/ml compared to control at 48 hours” value (Rhizopus sp.) was 4 (Level of growth in the absence of anti-fungal agent (control).).

For `CN(C)CC(=O)Nc1ccc2c(c1O)C(=O)C1=C(O)C3(O)C(=O)C(C(N)=O)=C(O)CC3CC1C2` (stereo not drawn) [COL 309, 9-dimethylaminoacetamido-6-demethyl-6-deoxy-4-dedimethylaminotetracycline], the “Growth at 25 μg/ml compared to control at 48 hours” value [1] was 4 (Level of growth in the absence of anti-fungal agent (control).), the “Growth at 25 μg/ml compared to control at 24 hrs incubation” value [2] was 4 (Level of growth in the absence of anti-fungal agent (control).) and the “Growth at 25 μg/ml compared to control at 48 hours” value [2] was 4 (Level of growth in the absence of anti-fungal agent (control).). The “Growth at 25 μg/ml compared to control at 24 hrs incubation” value [3] was 3 (25% reduction in growth of colonies compared to control.), the “Growth at 25 μg/ml compared to control at 48 hours” value [3] was 4 (Level of growth in the absence of anti-fungal agent (control).) and the “Growth at 25 μg/ml compared to control at 24 hrs incubation” value (Rhizopus sp.) was 4 (Level of growth in the absence of anti-fungal agent (control).). For the same molecule, the “Growth at 25 μg/ml compared to control at 48 hours” value (Rhizopus sp.) was 4 (Level of growth in the absence of anti-fungal agent (control).).

`NC(=O)C1=C(O)CC2CC3Cc4c([N+](=O)[O-])ccc(O)c4C(=O)C3=C(O)C2(O)C1=O` (stereo not drawn) [COL 302, 7-nitro-6-demethyl-6-deoxy-4-dedimethylaminotetracycline] was tested, and the “Growth at 25 μg/ml compared to control at 24 hrs incubation” value [1] was 0 (complete inhibition of growth.), the “Growth at 25 μg/ml compared to control at 48 hours” value [1] was 4 (Level of growth in the absence of anti-fungal agent (control).) and the “Growth at 25 μg/ml compared to control at 24 hrs incubation” value [2] was 4 (Level of growth in the absence of anti-fungal agent (control).). For the same molecule, the “Growth at 25 μg/ml compared to control at 48 hours” value [2] was 4 (Level of growth in the absence of anti-fungal agent (control).), the “Growth at 25 μg/ml compared to control at 24 hrs incubation” value [3] was 3 (25% reduction in growth of colonies compared to control.) and the “Growth at 25 μg/ml compared to control at 48 hours” value [3] was 4 (Level of growth in the absence of anti-fungal agent (control).). For the same molecule, the “Growth at 25 μg/ml compared to control at 24 hrs incubation” value (Rhizopus sp.) was 4 (Level of growth in the absence of anti-fungal agent (control).) and the “Growth at 25 μg/ml compared to control at 48 hours” value (Rhizopus sp.) was 4 (Level of growth in the absence of anti-fungal agent (control).).

In the case of “4-Dedimethylamino-7-dimethylamino-6-demethyl-6-deoxy-9-ethoxythiocarbonylthio-tetracycline sulfate [Example 7]”, the “Growth at 25 μg/ml compared to control at 24 hrs incubation” value [1] is reported as 0 (complete inhibition of growth.), the “Growth at 25 μg/ml compared to control at 48 hours” value [1] is reported as 4 (Level of growth in the absence of anti-fungal agent (control).) and the “Growth at 25 μg/ml compared to control at 24 hrs incubation” value [2] is reported as 0 (complete inhibition of growth.). The “Growth at 25 μg/ml compared to control at 48 hours” value [2] was 0 (complete inhibition of growth.), the “Growth at 25 μg/ml compared to control at 24 hrs incubation” value [3] was 3 (25% reduction in growth of colonies compared to control.) and the “Growth at 25 μg/ml compared to control at 48 hours” value [3] was 4 (Level of growth in the absence of anti-fungal agent (control).). For the same molecule, the “Growth at 25 μg/ml compared to control at 24 hrs incubation” value (Rhizopus sp.) was 4 (Level of growth in the absence of anti-fungal agent (control).) and the “Growth at 25 μg/ml compared to control at 48 hours” value (Rhizopus sp.) was 3 (25% reduction in growth of colonies compared to control.).

`CC(=O)Nc1cc(N(C)C)c2c(c1O)C(=O)C1=C(O)C3(O)C(=O)C(C(N)=O)=C(O)CC3CC1C2.O=S(=O)(O)O` (stereo not drawn) [Example 3, 9-Acetamido-4-dedimethylamino-7-dimethylamino-6-demethyl-6-deoxytetracycline sulfate] was tested, and the “Growth at 25 μg/ml compared to control at 24 hrs incubation” value [1] was 0 (complete inhibition of growth.), the “Growth at 25 μg/ml compared to control at 48 hours” value [1] was 4 (Level of growth in the absence of anti-fungal agent (control).) and the “Growth at 25 μg/ml compared to control at 24 hrs incubation” value [2] was 1 (75% reduction in growth in colonies compared to control.). The “Growth at 25 μg/ml compared to control at 48 hours” value [2] was 4 (Level of growth in the absence of anti-fungal agent (control).), the “Growth at 25 μg/ml compared to control at 24 hrs incubation” value [3] was 0 (complete inhibition of growth.) and the “Growth at 25 μg/ml compared to control at 48 hours” value [3] was 4 (Level of growth in the absence of anti-fungal agent (control).). The “Growth at 25 μg/ml compared to control at 24 hrs incubation” value (Rhizopus sp.) was 3 (25% reduction in growth of colonies compared to control.) and the “Growth at 25 μg/ml compared to control at 48 hours” value (Rhizopus sp.) was 1 (75% reduction in growth in colonies compared to control.).

For `CN(C)c1cc([N+]#N)c(O)c2c1CC1CC3CC(O)=C(C(N)=O)C(=O)C3(O)C(O)=C1C2=O.O=S(=O)([O-])O` (stereo not drawn) [Example 4, 4-Dedimethylamino-7-dimethylamino-6-demethyl-6-deoxy-9-diazoniumtetracycline sulfate], the “Growth at 25 μg/ml compared to control at 24 hrs incubation” value [1] was 0 (complete inhibition of growth.), the “Growth at 25 μg/ml compared to control at 48 hours” value [1] was 1 (75% reduction in growth in colonies compared to control.) and the “Growth at 25 μg/ml compared to control at 24 hrs incubation” value [2] was 1 (75% reduction in growth in colonies compared to control.). For the same molecule, the “Growth at 25 μg/ml compared to control at 48 hours” value [2] was 4 (Level of growth in the absence of anti-fungal agent (control).), the “Growth at 25 μg/ml compared to control at 24 hrs incubation” value [3] was 3 (25% reduction in growth of colonies compared to control.) and the “Growth at 25 μg/ml compared to control at 48 hours” value [3] was 0 (complete inhibition of growth.). For the same molecule, the “Growth at 25 μg/ml compared to control at 24 hrs incubation” value (Rhizopus sp.) was 4 (Level of growth in the absence of anti-fungal agent (control).) and the “Growth at 25 μg/ml compared to control at 48 hours” value (Rhizopus sp.) was 4 (Level of growth in the absence of anti-fungal agent (control).).

With `NC(=O)C1=C(O)CC2CC3Cc4ccc([N+](=O)[O-])c(O)c4C(=O)C3=C(O)C2(O)C1=O` (stereo not drawn) [COL 303, 9-nitro-6-demethyl-6-deoxy-4-dedimethylaminotetracycline] the “Growth at 25 μg/ml compared to control at 48 hours” value [1] was 4 (Level of growth in the absence of anti-fungal agent (control).), the “Growth at 25 μg/ml compared to control at 24 hrs incubation” value [2] was 3 (25% reduction in growth of colonies compared to control.) and the “Growth at 25 μg/ml compared to control at 48 hours” value [2] was 4 (Level of growth in the absence of anti-fungal agent (control).). The “Growth at 25 μg/ml compared to control at 24 hrs incubation” value [3] was 3 (25% reduction in growth of colonies compared to control.), the “Growth at 25 μg/ml compared to control at 48 hours” value [3] was 4 (Level of growth in the absence of anti-fungal agent (control).) and the “Growth at 25 μg/ml compared to control at 24 hrs incubation” value (Rhizopus sp.) was 4 (Level of growth in the absence of anti-fungal agent (control).). The “Growth at 25 μg/ml compared to control at 48 hours” value (Rhizopus sp.) was 4 (Level of growth in the absence of anti-fungal agent (control).).

In the case of `CC1(O)c2cccc(O)c2C(=O)C2=C(O)C3C(=O)C(C(N)=O)=C(O)CC3CC21` (stereo not drawn) [COL 7, 4-dedimethylamino-12α-deoxytetracycline], the “Anti-fungal activity (summary in words)” value [2] is reported as “strong activity”.

In the case of `CC1(O)c2c(Cl)ccc(O)c2C(=O)C2=C(O)C3(O)C(=O)C(C(N)=O)=C(O)CC3CC21` (stereo not drawn) [COL 4, 7-chloro-4-dedimethylaminotetracycline], the “Anti-fungal activity (summary in words)” value [1] is reported as “demonstrated activity” and the “Anti-fungal activity (summary in words)” value [3] is reported as “demonstrated activity”.
